From patent EP0059645A1, “Method and kit for identification of beta-lactamases” (NATIONAL RESEARCH DEVELOPMENT CORPORATION, priority 1981, dated 1982)
Marks after values point to notes of the source that are not given here.

Assays:
Assay in all cases: Competitive assay with nitrocefin (RSAI)
TEM-2 = TEM-2 (Escherichia coli, UniProt P62593, Q37K); type: biochemical, E. coli 1725E
Text: (§1) It is convenient to express the results in terms of a Relative Substrate Affinity Index (RSAI) value.
(§2) RSAI = Concentration of competing substrate which gives 50% inhibition of ring-opening hydrolysis of the chromogenic substrate
(§3) Concentration of chromogenic substrate in the assay A high RSAI value therefore indicates a low affinity of the beta-lactamase for that competing substrate, and therefore predicts resistance of a beta-lactam competing substrate to hydrolysis by the beta-lactamase. Low RSAI values, in contrast, predict sensitivity to hydrolysis by a beta-lactamase.
(§4) Beta-lactam antibiotics which bind to the TEM-2 enzyme compete with nitrocefin in the assay. […] . This concentration of ampicillin is a direct estimate of the relative affinity of the TEM-2 enzyme for ampicillin. […] . The RSAI value was therefore 1.3.

HMS-1 = type: biochemical, E. coli 1946
[1] = molecular target: T1, Chromosomal, constitutive beta-lactamase enzyme (Enterobacter cloacae, UniProt P05364); type: biochemical, E. cloacae
T1 construct: Normally, therefore, the beta-lactamase has to be extracted from the cells for the purpose of the present invention; endogenous in cells

PSE-3 = type: biochemical, Ps.aerug. 1920E
[2] = molecular target: T2, Chromosomal, induced beta-lactamase enzyme (Pseudomonas aeruginosa, UniProt P24735); type: biochemical, Ps.aerug. 1937E + ampicillin
T2 construct: Normally, therefore, the beta-lactamase has to be extracted from the cells for the purpose of the present invention; endogenous in cells; host or cells: Pseudomonas aeruginosa 1937E grown with ampicillin

K10317 = type: biochemical, K.aerog. 10317
Text: as §1, §2, §3, §4

K1073 = type: biochemical, Klebsiella 1073
Text: as §1, §2, §3, §4

K17 = type: biochemical, Klebsiella 17
Text: as §1, §2, §3, §4

OXA-3 = OXA-3 (Pseudomonas aeruginosa, UniProt Q51429); type: biochemical, E. coli R57B; set-up: Normally, therefore, the beta-lactamase has to be extracted from the cells for the purpose of the present invention; endogenous in cells
PSE-1 = PSE-1 (Pseudomonas aeruginosa, UniProt Q03170); type: biochemical, Ps.aerug. 1937E; set-up: Normally, therefore, the beta-lactamase has to be extracted from the cells for the purpose of the present invention; endogenous in cells
PSE-2 = PSE-2 (Pseudomonas aeruginosa, UniProt P14489); type: biochemical, Ps.aerug. 1973E; set-up: Normally, therefore, the beta-lactamase has to be extracted from the cells for the purpose of the present invention; endogenous in cells
PSE-4 = PSE-4 (Pseudomonas aeruginosa, UniProt P16897); type: biochemical, Ps.aerug. 1559E; set-up: Normally, therefore, the beta-lactamase has to be extracted from the cells for the purpose of the present invention; endogenous in cells
SHV-1 = SHV-1 (Escherichia coli, UniProt P0AD63); type: biochemical, E. coli 2008E; set-up: the beta-lactamase has to be extracted from the cells for the purpose of the present invention; made in house; host or cells: E. coli 2008E (crude cell extract)
TEM-1 = TEM-1 (Escherichia coli, UniProt P62593); type: biochemical, E. coli 2136E; set-up: the beta-lactamase has to be extracted from the cells for the purpose of the present invention; made in house; host or cells: E. coli 2136E (plasmid-bearing strain; crude cell extract)
OXA-1 = OXA-1 (Escherichia coli, UniProt P13661); type: biochemical, E. coli 1527E; set-up: the beta-lactamase has to be extracted from the cells for the purpose of the present invention; made in house; host or cells: E. coli 1527E according to the earlier reading (crude cell extract)
[3] = molecular target: Chromosomal, hyper-induced beta-lactamase enzyme (Escherichia coli, UniProt P00811); type: biochemical, E. coli SNU35; set-up: Normally, therefore, the beta-lactamase has to be extracted from the cells for the purpose of the present invention; endogenous in cells; host or cells: E. coli SNU 35 (artificially produced strain)
OXA-2 = OXA-2 (Escherichia coli, UniProt P0A1V9); type: biochemical, E. coli R46; set-up: the beta-lactamase has to be extracted from the cells for the purpose of the present invention; made in house; host or cells: E. coli carrying R46 according to the earlier reading (crude cell extract)

Row | SMILES | RSAI (TEM-2) | RSAI (HMS-1) | RSAI [1] | RSAI (PSE-3) | RSAI [2] | RSAI (K10317) | RSAI (K1073) | RSAI (K17) | RSAI (OXA-3) | RSAI (PSE-1) | RSAI (PSE-2) | RSAI (PSE-4) | RSAI (SHV-1) | RSAI (TEM-1) | RSAI (OXA-1) | RSAI [3] | RSAI (OXA-2)
1 | CC1(C)S[C@@H]2[C@H](NC(=O)[C@H](C(=O)O)c3ccsc3)C(=O)N2[C@H]1C(=O)O [Ticar-cillin, ticarcillin] | 0.49 | 0.175 | 0.0008* | 2 | 0.0065 | 0.48 | 0.485 | 0.25 | 12 | 0.63 | 2.4 | 0.65 | 0.23 | 0.035 | 0.65 | 0.001 | 26
2 | CCN1CCN(C(=O)N[C@@H](C(=O)N[C@@H]2C(=O)N3C(C(=O)O)=C(CSc4nnnn4C)CS[C@H]23)c2ccc(O)cc2)C(=O)C1=O [Cefopera-zone, cefoperazone] | 10 | 0.2 | 1.3 | 0.07 | 0.5 | 5 | 2.2 | 0.006 | 2 | 0.019 | 0.48 | 0.014 | 4.5 | 8 | 4.5 | 1.9 | 2
3 | CC1(C)S[C@@H]2[C@H](NC(=O)[C@H](N)c3ccc(O)cc3)C(=O)N2[C@H]1C(=O)O [Amoxy-cillin, amoxycillin] | 2.2 | 0.8 | 0.05 | 1.5 | 0.035 | 7 | 1.7 | 1.3 | 8.6 | 0.9 | 2.2 | 1 | 2.8 | 1.3 | 1.2 | 0.02 | 8
4 | CC(=O)OCC1=C(C(=O)O)N2C(=O)[C@@H](NC(=O)Cc3cccs3)[C@H]2SC1 [Cephalo-thin, Cephalothin] | 15 | 1 | 0.6 | 0.76 | 0.7 | 7 | 5.8 | 1.8 | 0.4 | 4 | 0.54 | 6 | 7 | 10 | 4 | 0.8 | 0.7
5 | C[C@@H](O)[C@H]1C(=O)N2C(C(=O)O)=C(SCCN=CN)C[C@H]12 [MK 0787 (N-Formimidoyl-thienamycin), N-Formimidoyl-thienamycin] | 0.1 | 1.2 | 0.03 | 0.5 | 0.015 | 0.24 | 1.9 | 2.1 | 0.0016* | 19.4 | 0.08 | 15 | 1.2 | 0.1 | 0.6* | 2 | 0.005*
6 | CC1(C)S[C@@H]2[C@H](NC(=O)[C@H](NC(=O)N3CCN(S(C)(=O)=O)C3=O)c3ccccc3)C(=O)N2[C@H]1C(=O)O [Mezlo-cillin, Mezlocillin] | 6.3 | 0.9 | 0.4 | 0.8 | 0.26 | 16.4 | 5.5 | 1.3 | 19.2 | 1.2 | 4.75 | 0.9 | 3 | 3.6 | 1.9 | 0.3 | 19.4
7 | CO/N=C(\C(=O)N[C@@H]1C(=O)N2C(C(=O)O)=CCS[C@H]12)c1csc(N)n1 [Cefti-zoxime, ceftizoxime] | 1000 | 66 | 0.1 | 120 | 500 | 630 | 720 | 220 | 200 | 360 | 128 | 380 | 1400 | 1000 | 50 | 1.7 | 110
8 | CC1(C)[C@H](C(=O)O)N2C(=O)C[C@H]2S1(=O)=O [CP 45,899] | 0.04* | 0.025* | 6.5* | 0.0014 | 2.5* | 0.08 | 0.18 | 0.5 | 0.05* | 0.036 | 16 | 0.015* | 0.018* | 0.02 | 8* | 1.7* | 0.15*
